PubChem BioAssay AID1919002 (Molecular Pharmacology Branch, DTP, NCI, 2023)

Tested on: 743489-274-T-PDC complex spheroid growth
Assay: Anticancer human tumor 743489-274-T-PDC patient-derived renal cell carcinoma cell line growth inhibition [AhR]
Settings: for IC50: curve of first compound; for viability, T/C: stronger effect = lower value
In short: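 Complex tumor spheroids co-cultured with HUVEC and human MSC stroma; AhR antagonists tested in combination with standard-of-care and investigational agents. Top concentration at or near clinical Cmax (else 10 microM), half-log dilutions; growth expressed as percent test/control.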

[1] = second compound 0.1 µM, first compound 0.0316 µM
[2] = second compound 0.1 µM, first compound 0.1 µM
[3] = second compound 0.1 µM, first compound 0.316 µM
[4] = second compound 0.1 µM, first compound 1 µM
[5] = second compound 0.1 µM, first compound 3.16 µM
[6] = second compound 0.1 µM, first compound 10 µM
[7] = second compound 0.316 µM, first compound 0.0316 µM
[8] = second compound 0.316 µM, first compound 0.1 µM
[9] = second compound 0.316 µM, first compound 0.316 µM
[10] = second compound 0.316 µM, first compound 1 µM
[11] = second compound 0.316 µM, first compound 3.16 µM
[12] = second compound 0.316 µM, first compound 10 µM
[13] = second compound 1 µM, first compound 0.0316 µM
[14] = second compound 1 µM, first compound 0.1 µM
[15] = second compound 1 µM, first compound 0.316 µM
[16] = second compound 1 µM, first compound 1 µM
[17] = second compound 1 µM, first compound 3.16 µM
[18] = second compound 1 µM, first compound 10 µM
[19] = second compound 3.16 µM, first compound 0.0316 µM
[20] = second compound 3.16 µM, first compound 0.1 µM
[21] = second compound 3.16 µM, first compound 0.316 µM
[22] = second compound 3.16 µM, first compound 1 µM
[23] = second compound 3.16 µM, first compound 3.16 µM
[24] = second compound 3.16 µM, first compound 10 µM
[25] = second compound 10 µM, first compound 0.0316 µM
[26] = second compound 10 µM, first compound 0.1 µM
[27] = second compound 10 µM, first compound 0.316 µM
[28] = second compound 10 µM, first compound 1 µM
[29] = second compound 10 µM, first compound 3.16 µM
[30] = second compound 10 µM, first compound 10 µM
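Also: spheroids exposed to agents for 7 days before readout.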
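For viability, T/C in this document: 100% = DMSO vehicle control wells.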

SMILES: CC(C)CC(NC(=O)C(Cc1ccccc1)NC(=O)c1cnccn1)B(O)O (stereo not given) + Cc1ccccc1N=Nc1ccc(NC(=O)c2ccnn2C)c(C)c1
- IC50 (second compound 0.1 µM): 0.0218 µM
- IC50 (second compound 0.316 µM): 0.0248 µM
- IC50 (second compound 1 µM): 0.0282 µM
- IC50 (second compound 3.16 µM): 0.0222 µM
- IC50 (second compound 10 µM): 0.0212 µM
- viability, T/C (second compound 0.1 µM, first compound 0.000949 µM): 99.1%
- viability, T/C (second compound 0.1 µM, first compound 0.003 µM): 115%
- viability, T/C (second compound 0.1 µM, first compound 0.00949 µM): 97.4%
- viability, T/C (second compound 0.1 µM, first compound 0.03 µM): 31.5%
- viability, T/C (second compound 0.1 µM, first compound 0.0949 µM): 13.8%
- viability, T/C (second compound 0.1 µM, first compound 0.3 µM): 4.06%
- viability, T/C (second compound 0.316 µM, first compound 0.000949 µM): 83.8%
- viability, T/C (second compound 0.316 µM, first compound 0.003 µM): 98.5%
- viability, T/C (second compound 0.316 µM, first compound 0.00949 µM): 100%
- viability, T/C (second compound 0.316 µM, first compound 0.03 µM): 41.1%
- viability, T/C (second compound 0.316 µM, first compound 0.0949 µM): 16.2%
- viability, T/C (second compound 0.316 µM, first compound 0.3 µM): 2.22%
- viability, T/C (second compound 1 µM, first compound 0.000949 µM): 88.9%
- viability, T/C (second compound 1 µM, first compound 0.003 µM): 111%
- viability, T/C (second compound 1 µM, first compound 0.00949 µM): 113%
- viability, T/C (second compound 1 µM, first compound 0.03 µM): 46.9%
- viability, T/C (second compound 1 µM, first compound 0.0949 µM): 15.2%
- viability, T/C (second compound 1 µM, first compound 0.3 µM): 5%
- viability, T/C (second compound 3.16 µM, first compound 0.000949 µM): 89.1%
- viability, T/C (second compound 3.16 µM, first compound 0.003 µM): 94.8%
- viability, T/C (second compound 3.16 µM, first compound 0.00949 µM): 94.2%
- viability, T/C (second compound 3.16 µM, first compound 0.03 µM): 34.9%
- viability, T/C (second compound 3.16 µM, first compound 0.0949 µM): 17.3%
- viability, T/C (second compound 3.16 µM, first compound 0.3 µM): 2.43%
- viability, T/C (second compound 10 µM, first compound 0.000949 µM): 77.4%
- viability, T/C (second compound 10 µM, first compound 0.003 µM): 97.6%
- viability, T/C (second compound 10 µM, first compound 0.00949 µM): 89.4%
- viability, T/C (second compound 10 µM, first compound 0.03 µM): 33.6%
- viability, T/C (second compound 10 µM, first compound 0.0949 µM): 10.4%
- viability, T/C (second compound 10 µM, first compound 0.3 µM): 4.58%

SMILES: NS(=O)(=O)OCC1CC(n2ccc3c(NC4CCc5ccccc54)ncnc32)CC1O (stereo not given) + Cc1ccccc1N=Nc1ccc(NC(=O)c2ccnn2C)c(C)c1
- IC50 (second compound 0.1 µM): > 10 µM
- IC50 (second compound 0.316 µM): > 10 µM
- IC50 (second compound 1 µM): > 10 µM
- IC50 (second compound 3.16 µM): > 10 µM
- IC50 (second compound 10 µM): > 10 µM
- viability, T/C [1]: 103%
- viability, T/C [2]: 110%
- viability, T/C [3]: 116%
- viability, T/C [4]: 146%
- viability, T/C [5]: 162%
- viability, T/C [6]: 140%
- viability, T/C [7]: 109%
- viability, T/C [8]: 95.8%
- viability, T/C [9]: 112%
- viability, T/C [10]: 144%
- viability, T/C [11]: 137%
- viability, T/C [12]: 155%
- viability, T/C [13]: 98.1%
- viability, T/C [14]: 104%
- viability, T/C [15]: 102%
- viability, T/C [16]: 144%
- viability, T/C [17]: 146%
- viability, T/C [18]: 141%
- viability, T/C [19]: 105%
- viability, T/C [20]: 90.8%
- viability, T/C [21]: 112%
- viability, T/C [22]: 128%
- viability, T/C [23]: 152%
- viability, T/C [24]: 140%
- viability, T/C [25]: 96.7%
- viability, T/C [26]: 103%
- viability, T/C [27]: 116%
- viability, T/C [28]: 130%
- viability, T/C [29]: 121%
- viability, T/C [30]: 115%

SMILES: COc1cc(Nc2ncc3c(n2)-c2ccc(Cl)cc2C(c2c(F)cccc2OC)=NC3)ccc1C(=O)O + CC(CO)NC(=O)c1cc(-c2ccc(Cl)cc2)nn(-c2cnn(C)c2)c1=O
- IC50 (second compound 0.1 µM): > 10 µM
- IC50 (second compound 0.316 µM): > 10 µM
- IC50 (second compound 1 µM): > 10 µM
- IC50 (second compound 3.16 µM): > 10 µM
- IC50 (second compound 10 µM): > 10 µM
- viability, T/C [1]: 96.9%
- viability, T/C [2]: 95.2%
- viability, T/C [3]: 91.4%
- viability, T/C [4]: 84.4%
- viability, T/C [5]: 86.4%
- viability, T/C [6]: 88.9%
- viability, T/C [7]: 98.7%
- viability, T/C [8]: 90.3%
- viability, T/C [9]: 91.3%
- viability, T/C [10]: 86.6%
- viability, T/C [11]: 93.5%
- viability, T/C [12]: 85.5%
- viability, T/C [13]: 90.6%
- viability, T/C [14]: 97.3%
- viability, T/C [15]: 95.5%
- viability, T/C [16]: 76.4%
- viability, T/C [17]: 87.9%
- viability, T/C [18]: 87.3%
- viability, T/C [19]: 101%
- viability, T/C [20]: 104%
- viability, T/C [21]: 95.2%
- viability, T/C [22]: 85.7%
- viability, T/C [23]: 82%
- viability, T/C [24]: 84.9%
- viability, T/C [25]: 91.2%
- viability, T/C [26]: 102%
- viability, T/C [27]: 86.9%
- viability, T/C [28]: 93.9%
- viability, T/C [29]: 88.6%
- viability, T/C [30]: 94.5%

SMILES: O=C(c1cc(Cc2n[nH]c(=O)c3ccccc23)ccc1F)N1CCN(C(=O)C2CC2)CC1 + Cc1ccccc1N=Nc1ccc(NC(=O)c2ccnn2C)c(C)c1
- IC50 (second compound 0.1 µM): > 10 µM
- IC50 (second compound 0.316 µM): > 10 µM
- IC50 (second compound 1 µM): > 10 µM
- IC50 (second compound 3.16 µM): > 10 µM
- IC50 (second compound 10 µM): > 10 µM
- viability, T/C [1]: 104%
- viability, T/C [2]: 96.2%
- viability, T/C [3]: 91.8%
- viability, T/C [4]: 90%
- viability, T/C [5]: 108%
- viability, T/C [6]: 94.6%
- viability, T/C [7]: 94.4%
- viability, T/C [8]: 94.4%
- viability, T/C [9]: 94.3%
- viability, T/C [10]: 90.2%
- viability, T/C [11]: 91.7%
- viability, T/C [12]: 94.2%
- viability, T/C [13]: 97%
- viability, T/C [14]: 95.2%
- viability, T/C [15]: 111%
- viability, T/C [16]: 96.1%
- viability, T/C [17]: 93.8%
- viability, T/C [18]: 83.3%
- viability, T/C [19]: 97%
- viability, T/C [20]: 87.5%
- viability, T/C [21]: 91.4%
- viability, T/C [22]: 90.6%
- viability, T/C [23]: 101%
- viability, T/C [24]: 99.3%
- viability, T/C [25]: 92.4%
- viability, T/C [26]: 110%
- viability, T/C [27]: 106%
- viability, T/C [28]: 96.8%
- viability, T/C [29]: 92.7%
- viability, T/C [30]: 85.4%

SMILES: Nc1ccccc1NC(=O)c1ccc(CNC(=O)OCc2cccnc2)cc1 + CC(CO)NC(=O)c1cc(-c2ccc(Cl)cc2)nn(-c2cnn(C)c2)c1=O
- IC50 (second compound 0.1 µM): 4.81 µM
- IC50 (second compound 0.316 µM): 3.74 µM
- IC50 (second compound 1 µM): 4.31 µM
- IC50 (second compound 3.16 µM): 1.74 µM
- IC50 (second compound 10 µM): 1.08 µM
- viability, T/C [1]: 92.7%
- viability, T/C [2]: 92.3%
- viability, T/C [3]: 92.9%
- viability, T/C [4]: 72.5%
- viability, T/C [5]: 61.8%
- viability, T/C [6]: 32.9%
- viability, T/C [7]: 89.1%
- viability, T/C [8]: 80.9%
- viability, T/C [9]: 87.9%
- viability, T/C [10]: 62.6%
- viability, T/C [11]: 55.4%
- viability, T/C [12]: 34.6%
- viability, T/C [13]: 92.5%
- viability, T/C [14]: 91%
- viability, T/C [15]: 80.5%
- viability, T/C [16]: 78.4%
- viability, T/C [17]: 56.4%
- viability, T/C [18]: 29.7%
- viability, T/C [19]: 88.4%
- viability, T/C [20]: 88.5%
- viability, T/C [21]: 78%
- viability, T/C [22]: 59.7%
- viability, T/C [23]: 39.7%
- viability, T/C [24]: 27.7%
- viability, T/C [25]: 79.1%
- viability, T/C [26]: 87.3%
- viability, T/C [27]: 69.2%
- viability, T/C [28]: 52.4%
- viability, T/C [29]: 31.3%
- viability, T/C [30]: 23.4%

SMILES: COc1cccc2c1C(=O)c1c(O)c3c(c(O)c1C2=O)CC(O)(C(=O)CO)CC3OC1CC(N)C(O)C(C)O1 (stereo not given) + Cc1ccccc1N=Nc1ccc(NC(=O)c2ccnn2C)c(C)c1
- IC50 (second compound 0.1 µM): 5.54 µM
- IC50 (second compound 0.316 µM): 5.43 µM
- IC50 (second compound 1 µM): 9.11 µM
- IC50 (second compound 3.16 µM): 8.62 µM
- IC50 (second compound 10 µM): 4.79 µM
- viability, T/C [1]: 102%
- viability, T/C [2]: 97.3%
- viability, T/C [3]: 114%
- viability, T/C [4]: 102%
- viability, T/C [5]: 73.3%
- viability, T/C [6]: 25.6%
- viability, T/C [7]: 107%
- viability, T/C [8]: 96.8%
- viability, T/C [9]: 99.7%
- viability, T/C [10]: 105%
- viability, T/C [11]: 81.4%
- viability, T/C [12]: 14.5%
- viability, T/C [13]: 96%
- viability, T/C [14]: 101%
- viability, T/C [15]: 98.6%
- viability, T/C [16]: 95.2%
- viability, T/C [17]: 80.4%
- viability, T/C [18]: 47.3%
- viability, T/C [19]: 90%
- viability, T/C [20]: 88.8%
- viability, T/C [21]: 105%
- viability, T/C [22]: 96%
- viability, T/C [23]: 87.3%
- viability, T/C [24]: 44.3%
- viability, T/C [25]: 85.3%
- viability, T/C [26]: 82.2%
- viability, T/C [27]: 95.1%
- viability, T/C [28]: 83.5%
- viability, T/C [29]: 71.9%
- viability, T/C [30]: 11.7%
